“Also recorded” adds a separate entry of the source.
How the values were obtained:
[1] = test system: PKC isoforms and Erk1/2 in A549 cells; assay: PKC inhibitor effect on PKC activator-mediated phosphorylation of PKCs and Erk1/2, A549; assay type: cell-based; settings: 30 minutes
Protocol: To assay if PKC inhibitors have any effects on the PKC activator-mediated phosphorylation of PKCs, A549 cells were pre-treated with DMSO, PKC inhibitors Go6983 (0.3 μM or 1 μM) or Sotrastaurin (0.3 μM or 1 μM) for 30 minutes before adding PKC activators K101A (1 μM) or K102 (0.1 μM) for another 30 minutes (FIG. 22). Cell lysis, protein quantitation, and Western blot analysis were performed as described above in Example 2 and 4. […] Phosphorylation of PKCα/β at Thr638/641 was not affected by the inhibitors (FIG. 22A). […] These PKC inhibitor studies indicate that blocking phosphorylation and activation of various isoforms of PKC is correlated with inhibition of the anti-proliferative effects of the PKC activators.
Cell lysis, protein quantitation, and Western blot analysis were performed as described above in Example 2 and 4. […] These PKC inhibitor studies also indicate that phosphorylation and activation of novel PKC isoforms and PKCμ is required for the anti-proliferative effects of the PKC activators whereas phosphorylation of PKCδ at Tyr311 is correlated with inhibition of the anti-proliferative effects of PKC activators.

Namalwa cells = assay: Proliferation assay, PKC inhibitors in combination with PKC activators, Namalwa; assay type: cell-based; settings: Sotrastaurin 0.3/1 μM, Go6983 0.1/1 μM, Go6976 0.3/1 μM, Enzastaurin at very high concentration of 10 μM
Protocol: PKC inhibitor studies were performed as described in Example 15. […] Thus, PKC activator-mediated anti-proliferation effects may be dependent on activation of novel PKC isoforms.

A549 = assay: Proliferation assay, PKC inhibitor in combination with PKC activators, A549; assay type: cell-based; settings: Go6983 0.1 μM or 1 μM with K101A or K102
Protocol: To assess if activation of different classes of PKC is required for anti-proliferation effect of PKC activators, Sotrastaurin, a PKC inhibitor targeting both conventional and novel classes of PKC, was tested in combination with PKC activators in the proliferation assays. Proliferation assay in lung cancer cell line A549 (FIG. 15) and in pancreatic cell line MiaPaCa-2 (FIG. 16) was performed as described in Example 1. […] Then, K101A or K102 was tested in 8- or 9-point titrations in the presence of DMSO or Sotrastaurin (0.1 μM or 1 μM). […] Thus, PKC activator-mediated anti-proliferation effects are dependent on activation of PKC isoforms from conventional, or novel, or both classes of PKCs.
To assess if PKC activation is required for anti-proliferation effect of PKC activators in cancer cell lines that are sensitive to these activators, a pan-PKC inhibitor Go6983, targeting classes of PKCs (conventional, novel, atypical, and PKCμ), was tested in combination with PKC activators in the proliferation assays. Proliferation assay in lung cancer cell line A549 (FIG. 17) and in pancreatic cell line MiaPaCa-2 (FIG. 18) was performed as described in Example 1. […] Then, K101A or K102 was tested in 8- or 9-point titrations in the presence of DMSO or Go6983 (0.1 μM or 1 μM). […] Thus, PKC activation is required for anti-proliferation effect of PKC activators.
Proliferation assay was performed as described in Example 1. […] Thus, PKC activator-mediated anti-proliferation effects appear mainly dependent on activation of novel PKC isoforms.

[2] = test system: PKC isoforms and Erk1/2 in Mino and Namalwa cells; assay: PKC inhibitor effect on K101A-mediated phosphorylation of PKCs and Erk1/2 in Mino and Namalwa cells; assay type: cell-based
Protocol: Cell lysis, protein quantitation, and Western blot analysis were performed as described above in Example 2 and 4. […] Again, these PKC inhibitor studies indicate the anti-proliferative effects of the PKC activators appear to be positively associated with phosphorylation and activation of novel PKC isoforms and PKCγ, and negatively associated with the phosphorylation of PKCδ at Tyr311.

MiaPaCa-2 = assay: Proliferation assay, PKC inhibitor in combination with PKC activators, MiaPaCa-2; assay type: cell-based; settings: Go6983 0.1 μM or 1 μM with K101A or K102
Mino cells = assay: Proliferation assay, PKC inhibitors in combination with PKC activators, Mino; assay type: cell-based; settings: Sotrastaurin 0.3/1 μM, Go6983 0.1/1 μM, Go6976 0.3/1 μM, Enzastaurin 1/3 μM
Protocol: PKC inhibitor studies were performed as described in Example 8, 9, and 10. […] Thus, PKC activator-mediated anti-proliferation effects may be dependent on activation of PKC isoforms from the novel PKC class.

[3] = test system: K-Ras mutant pancreatic, lung, and colon cancer cell lines, leukemia cell lines; assay: Proliferation assays, panel of cancer cell lines (summary statements); assay type: cell-based
Protocol: Briefly, cells at a density of 1,000-10,000 cells/well were seeded in 96-well plates and incubated at 37′C for 24 hours. A series of 9 different concentrations of compound stocks (500×) were created by 3-fold serial dilution in DMSO. These compounds were further diluted in culture media and then added to cells so that the final DMSO concentration was 0.2%. After 96 hours of incubation, 50 μL of CellTiter Glo reagent (Promega) was added to each well and luminescence was measured after 10 minutes using EnVision (PerkinElmer). […] The dose range for most compounds was 4.6 nM-30 μM. The dose ranges for some compounds were adjusted downward to 0.46 nM-3 μM or 0.08 nM-0.5 μM or 0.03 nM-0.2 μM. Luminescence from cells treated with […] alone was set as Max and % of inhibition was calculated as follows: Inhibition %=(Max-Sample value)/Max*100. Data was analyzed using XL-fit software (ID Business Solutions Ltd.) and EC50, relative EC50, and % of top inhibition were calculated. The results are shown in Tables 3-6 for pancreatic cancer, lung cancer, colon/gastric cancer, and leukemia cell lines.

PKCδ = PKCδ Tyr311 phosphorylation in A549, HCT116, SW620, Panc02.13 cells, Western blot; assay type: cell-based; settings: 30 minutes
Protocol: (§1) Non-cancerous lung fibroblast cell line HFL-1 or cancer cells (2-8 million cells) were seeded in 10 cm dishes and grown overnight so that the cells were about 40-80% confluent before treatment with the compound. Cells were then treated with different drugs at indicated concentrations (see descriptions for FIG. 11 and FIG. 12) for 30 minutes. Cell lysate preparation, protein quantitation, SDS-PAGE, and Western blotting procedures are described in Example 2 and 4. Primary antibodies used in this Example and later Examples of this application are shown in Table A. Secondary antibodies Anti-mouse IgG HRP conjugate or Anti-rabbit IgG HRP conjugate (dilutions from 1:2000-1:10000) were used. Western blot membranes were scanned using Imagequant LAS4000 (GE). The results are shown in FIG. 11A and FIG. 11B for HFL-1 cells and FIG. 11C and FIG. 12 for A549 cells.

[4] = test system: PKC isoforms in Panc2.13 cells; assay: Time course of activation of PKC isoforms in Panc2.13; assay type: cell-based; settings: extended periods (16 h and 24 h), K102 0.1 μM, K103 0.01 μM versus K101A
Protocol: Cells of pancreatic cancer cell line Panc2.13 were seeded as described above, and the cell confluence was between 40-80% the next day. […] Phosphorylation at multiple PKC isoforms, such as Ser744/748 or Ser916 for PKCμ, phosphorylation at Thr638/641 for PKCα/β, phosphorylation at Ser660 for PKCβII (pan-PKC), phosphorylation at Ser643/676 for PKCδ/θ, and phosphorylation at Thr505 for PKCδ, were detected.

[5] = test system: PKC isoforms in A549 cells; assay: Activation of PKC isoforms, Western blot, A549; assay type: cell-based; settings: 30 minutes
Protocol: (§2) A549 lung cancer cells (˜3 million cells) were seeded in 10 cm tissue culture dishes and grown overnight. Cells were then treated with different drugs at indicated concentrations (see FIG. 9A for global activation of PKC and FIG. 10 for activation of PKC isoforms) for 30 minutes. Panc2.13 pancreatic cells (˜5 million) were seeded and treated as in FIG. 9B for global activation of PKC. Cell lysate preparation, protein quantitation, SDS-PAGE, and Western blotting procedures are described in Example 2. Primary antibodies used in this Example and later Examples of this application are shown in Table A. Western blot membranes were scanned using Odyssey® Imaging System (Licor Biosciences) if secondary antibodies Anti-mouse IgG Dylight 800 conjugate or Anti-rabbit IgG DyLight 680 conjugate (1:10000)(Cell signaling or similar IR 2nd antibodies from different vendors) were used. Alternatively, Imagequant LAS4000 (GE) was used to scan membranes if secondary antibodies Anti-mouse IgG HRP conjugate or Anti-rabbit IgG HRP conjugate (dilutions from 1:2000-1:10000) were used.

[6] = literature reports; cited from earlier work
PKCμ = PKCμ phosphorylation in A549, HCT116, SW620, Panc02.13 cells, Western blot; assay type: cell-based; settings: 30 minutes
Protocol: as §1, with “(GE).” for “(GE). The results are shown in FIG. 11A and FIG. 11B for HFL-1 cells and FIG. 11C and FIG. 12 for A549 cells.”

[7] = test system: PKC substrates in Panc2.13 cells; assay: Global PKC activation (phosphorylated PKC substrates), Western blot, Panc2.13; assay type: cell-based; settings: Phospho-(Ser) PKC Substrate Antibody
Protocol: as §2

[8] = test system: PKC substrates in A549 cells; assay: Global PKC activation (phosphorylated PKC substrates), Western blot, A549; assay type: cell-based; settings: 30 minutes, Phospho-PKC substrate Motif MultiMab
Protocol: as §2

A549 cells = assay: Soft agar colony formation assay; assay type: cell-based
Protocol: To prepare the base agar layer (0.6%), melted 1.2% agar solution was mixed 1:1 (v/v) with 2×DMEM/20% FBS medium in a tube by inverting several times and 50 μL of the mixture was immediately transferred to a well in a 96-well flat-bottom microplate. The plate was placed at 4° C. for 30 minutes to allow the base agar layer to solidify. Then, the cell agar layer (agar 0.4%) was prepared by transferring 75 μL of the cell and agar mixture containing 1:1:1 (v/v/v) of 1.2% agar solution, 2×DMEM/20% FBS and cell suspension (0.4-4×10^5/mL) to each well of the plates so that each well contained 1000-10000 cells per well. The plates were placed at 4° C. for 15 minutes and then 75 μL of media were added to each well. After incubating the plates overnight in a CO2 incubator, 50 μL of media with or without 5× final concentrations of compounds were added to each well. Each compound was tested in 9-point 3-fold dilution series. The plates were incubated for 7-10 days at 37° C. At the end of incubation period, 28 μL of Calcein AM solution (5 μM) was added to the center of each well. The plates were incubated at 37° C. for 45 minutes before scanning on Acumen (TTP Labtech). Each compound was tested in triplicates. Data was analyzed and compound EC50s were calculated using GraphPad Prism 5.

[9] = inhibitor pre-treatment 0.3 μM or 1 μM

COc1ccc2c(c1)c(C1=C(c3c[nH]c4ccccc34)C(=O)NC1=O)cn2CCCN(C)C [Go6983]
K101A- and K102-induced phosphorylation of Erk1/2 [1, 9]: blocked dose-dependently
K101A- or K102-induced phosphorylation, P-PKCμ (Ser916), P-PKCμ (Ser744/748), P-PKCδ (Thr505) [1, 9]: blocked in a dose-dependent manner
Phosphorylation of PKCα/β at Thr638/641 [1, 9]: not affected
K101A- or K102-induced phosphorylation of PKCμ at Ser916 or Ser744/748, PKCδ at Thr505, and Erk ([1]; inhibitor pre-treatment 1 μM): completely abolished
phosphorylation of PKCδ at Tyr311 induced by PKC inhibitor ([1]; inhibitor pre-treatment 1 μM): induced phosphorylation of PKCδ at Tyr311
effect on PKC activator-mediated anti-proliferation effects (Namalwa cells): dose-dependently blocked
effect on PKC activator-mediated anti-proliferation effects (A549): inhibited the PKC activator-mediated anti-proliferation effects in a dose-dependent manner
phosphorylation of PKCδ at Tyr311 induced by PKC inhibitor ([2]; inhibitor pre-treatment 30 minutes): induced robust phosphorylation
K101A-induced phosphorylation of PKCμ at Ser916 or Ser744/748, PKCδ at Thr505, and Erk ([2]; inhibitor pre-treatment 30 minutes (Go6983, Sotrastaurin 1 μM)): completely abolished
effect on PKC activator-mediated anti-proliferation effects (MiaPaCa-2): inhibited the PKC activator-mediated anti-proliferation effects in a dose-dependent manner
effect on PKC activator-mediated anti-proliferation effects (Mino cells): dose-dependently blocked

CCCCCCCCCCCCCC(=O)O[C@@H]1[C@@H](C)[C@@]2(O)[C@@H](C=C(CO)C[C@]3(O)C(=O)C(C)=C[C@@H]23)[C@@H]2C(C)(C)[C@]12OC(C)=O [Compound K-103, 12-O-Tetradecanoylphorbol-13-acetate]
potency in proliferation inhibition relative to prostratin [3]: more potent in proliferation inhibition
PKCδ activation, phosphorylation at Tyr311 (PKCδ): observed for PKC activator insensitive cell lines HCT116 and SW620 but not as significantly for sensitive cell lines A549 and Pan 02,13; also recorded: observed for cell lines HCT116 and SW620 but not as significantly for cell lines A549 and Panc02.13
reducing the phosphorylation at βII Ser660 of PKC (pan), to a lesser extent Thr638/641 of PKCα/β [4]: more potent
P-PKCδ (Thr505) and P-PKCδ/θ (Ser643/676) [5]: potently increased
P-PKC (pan)(βII Ser660) and P-PKCα/β (Thr638/641) ([5]; high levels already in DMSO treated cells): no further increases
tumor promotion [6]: tumor-promoting
PKCμ activation, phosphorylation at Ser744/748 (PKCμ): observed for all four cancer cell lines
PKCμ activation, phosphorylation at Ser916 (PKCμ): observed primarily in cell lines A549 and Pan 02,13; also recorded: observed primarily in cell lines A549 and Panc02.13
phosphorylation of PKC substrates (global activation of PKC) [7]: potently elevated
phosphorylation of PKC substrates (global activation of PKC) [8]: potently elevated
number of colonies formed in soft agar (A549 cells; 7-10 days, 9-point dilution series): reduced the number of colonies
potency rank in soft agar assay (A549 cells; K103, followed by K102, K101A, and K101E): Most potent compound

Source: patent US12502369B2, “Methods of cancer treatment” (K-GEN, INC., priority 2015, dated 2025)
